Laboratory results reported in patent US20090088373A1, “USE OF COMPOSITIONS TO ENHANCE INNATE IMMUNE RESPONSE” (priority 2007, published 2009).

Legend:
cathelicidin = assay: Cathelicidin mRNA expression in normal human keratinocytes (NHEK); assay type: cell-based; design: Cathelicidin mRNA expression (Mean) / Cathelicidin mRNA expression (means): unit not given here; conditions: for Cathelicidin mRNA expression (means): 1 uM tacrolimus, 1 ug/ml CsA, 25ng/ml rapamycin; for Cathelicidin mRNA expression (Means of N = 3): Example 6, 10 nM Pimecrolimus, 1 nM 1,25D3
Procedure: (§1) To assess the effect of pimecrolimus on the innate immune response of the epidermis, cultures of normal human keratinocytes (NHEK) are stimulated with combinations of a concentration of 10 nM pimecrolimus, 1 μg/ml TLR 2/CD14 ligand—peptidoglycan (PGN), 10 μg/ml lipoteichoic acid (LTA), 2 0.1 μg/ml TLR 2/6 ligand—Malp-, and/or 0.1 μg/ml TLR 4/CD14 ligand—lipopolysaccharide (LPS). Expression of cathelicidin mRNA (Table 3) and protein as well as Human Beta Defensin (HBD) 2 (Table 4) and HBD3 (Table 5) expression in normal human keratinocytes is measured.
(§2) To assess the effect of pimecrolimus on the innate immune response of the epidermis, cultures of normal human keratinocytes (NHEK) are stimulated with a concentration of 10 nM pimecrolimus,1 nM 1.25 D3, 0.1 μg/ml TLR2/6 ligand Malp-2 or their combination. Expression of cathelicidin, CD14 and TLR2 mRNA normal human keratinocytes is measured and evaluated accordingly to the procedures as detailed in Example 2 above.
To assess the effect of pimecrolimus on the innate immune response of the epidermis, cultures of normal human keratinocytes (NHEK) are stimulated with a concentration of 10 nM pimecrolimus, 1 uM tacrolimus, 1 ug/ml CsA, 25ng/ml rapamycin, or a combination of pimecrolimus and rapamycin, each of these with or without 0.1 μg/ml TLR2/6 ligand Malp-2. Cathelicidin mRNA expression is evaluated.
(§3) To assess the effect of time dependent effects of pimecrolimus on the innate immune response of the epidermis, cultures of normal human keratinocytes (NHEK) are stimulated with 10 nM Pimecrolimus and low dose calciferol (1,25D3) 1 nM for different time points. mRNA expression of cathelicidin, CD14 and TLR2 is analyzed by qPCR.
To assess the effect of varying levels of pimecrolimus on the innate immune response of the epidermis, cultures of normal human keratinocytes (NHEK) are stimulated with 0 nM, 5 nM, 10 nM, 20 nM, 30 nM, […], […] and 60 nM concentrations of pimecrolimus. Expression of cathelicidin mRNA expression is measured and evaluated accordingly to the procedures as detailed in Example 2 above.
(§4) To assess the effect of calciferol on varying levels of pimecrolimus on the innate immune response of the epidermis, cultures of normal human keratinocytes (NHEK) are stimulated with 0.01 nM, 0.1 nM, 1 nM and 10 nM concentrations of pimecrolimus with or without 1 nM concentrations of calciferol for 24 hours. Expression of cathelicidin mRNA and gene expression of TLR2 is measured and evaluated accordingly to the procedures as detailed in Example 2 above.

HBD3 = HBD3 expression in normal human keratinocytes (NHEK); assay type: cell-based; design: unit not given here; conditions: Example 2; TLR ligand alone, without Pimecrolimus
Procedure: as §1

[1] = test system: Human Beta Defensin (HBD) 2; assay: HBD2 expression in normal human keratinocytes (NHEK); assay type: cell-based; design: unit not given here; conditions: Example 2; TLR ligand alone, without Pimecrolimus
Procedure: as §1

[2] = test system: Staphylococcus aureus ΔmprF; assay: Growth of S. aureus ΔmprF (OD600) mixed with lysates of stimulated normal human keratinocytes; assay type: cell-based; conditions: S. aureus + lysates of NHEK stimulated with 10 nM pimecrolimus, 1 nM 1.25D3 or combination, 37° C.
Procedure: To assess the effect of pimecrolimus on the innate immune response of the epidermis against bacteria, cultures of normal human keratinocytes (NHEK) are stimulated with a concentration of 10 nM pimecrolimus, 1 nM 1.25D3 (active 1.25 D-hydroxy calciferol) or their combination. Cells are lysed via sonication 20 minutes in an ice bath, after which cell lysates were mixed with Staphylococcus aureus ΔmprF cultures and incubated at 37° C. Bacterial growth over time is monitored by OD600 (Table 1). To determine if Pimecrolimus alone was able to kill Staphylococcus aureus ΔmprF, Pimecrolimus in a concentration of 10 nM is co-incubated with Staphylococcus aureus ΔmprF cultures and incubated at 37° C. (Table 2). Bacterial growth is monitored by OD600 (*: p<0.05; **: p<0.01; Student's t-test).

TLR6 = TLR6 gene expression by qPCR in NHEK; assay type: cell-based, human; conditions: Example 3; 10 nM pimecrolimus, 1 nM 1.25D3
Procedure: (§5) To assess the effect of pimecrolimus on the innate immune response of the epidermis, cultures of normal human keratinocytes (NHEK) are stimulated with a combination of a concentration of 10 nM pimecrolimus and of 1 nM 1.25D3. Gene expression of TLR1, TLR2, TLR4, TLR6 and CD14 are evaluated by qPCR. For CD14 protein expression, a Western Blot is performed and bands are quantified by densitometry using lmagej. Vehicle treated keratinocytes serve as controls. Cathelicidin protein expression is evaluated by immunofluorescence staining.

TLR2 = TLR2 gene expression by qPCR in NHEK; assay type: cell-based, human; conditions: for TLR2 mRNA expression (Mean): 10 nM pimecrolimus; for TLR2 mRNA expression (Means of N = 3): Example 6, 10 nM Pimecrolimus, 1 nM 1,25D3
Procedure: as §5, §2, §3, §4

CD14 = CD14 gene expression by qPCR in NHEK; assay type: cell-based, human; conditions: for CD14 mRNA expression (Mean): 10 nM pimecrolimus; for CD14 mRNA expression (Means of N = 3): Example 6, 10 nM Pimecrolimus, 1 nM 1,25D3
Procedure: as §5, §2, §3

TLR1 = TLR1 gene expression by qPCR in NHEK; assay type: cell-based, human; conditions: Example 3; 10 nM pimecrolimus, 1 nM 1.25D3
Procedure: as §5

[3] = Example 5, Experiment 1, with 0.1 μg/ml Malp-2, 10 nM pimecrolimus
[4] = Example 5, Experiment 1, without Malp-2, 10 nM pimecrolimus
[5] = Example 5, Experiment 2, with 0.1 μg/ml Malp-2, 10 nM pimecrolimus
[6] = Example 5, Experiment 2, without Malp-2, 10 nM pimecrolimus
[7] = Example 2, TLR ligand alone, without Pimecrolimus (1 μg/ml PGN, 10 μg/ml LTA, 0.1 μg/ml Malp-2, 0.1 μg/ml LPS)
[8] = Example 4, 1 nM 1.25 D3, 0.1 μg/ml Malp-2 or combination

## C=CC[C@@H]1/C=C(\C)C[C@H](C)C[C@H](OC)[C@H]2O[C@@](O)(C(=O)C(=O)N3CCCC[C@H]3C(=O)O[C@H](/C(C)=C/[C@@H]3CC[C@@H](O)[C@H](OC)C3)[C@H](C)[C@@H](O)CC1=O)[C@H](C)C[C@@H]2OC [Tacrolimus, tacrolimus]
cathelicidin; [3]
  Cathelicidin mRNA expression (means): 5.47
cathelicidin; [4]
  Cathelicidin mRNA expression (means): 0.67
cathelicidin; [5]
  Cathelicidin mRNA expression (means): 0.77
cathelicidin; [6]
  Cathelicidin mRNA expression (means): 3.34

## Malp-2
HBD3
  HBD3 expression (Mean): 3.51
cathelicidin; [7]
  Cathelicidin mRNA expression (Mean): 2.29
cathelicidin; [3]
  Cathelicidin mRNA expression (means): 1.53
cathelicidin; [5]
  Cathelicidin mRNA expression (means): 3.19
[1]
  HBD2 expression (Mean): 119.16

## lipopolysaccharide [LPS]
HBD3
  HBD3 expression (Mean): 1.39
cathelicidin; [7]
  Cathelicidin mRNA expression (Mean): 0.65
[1]
  HBD2 expression (Mean): 5.68

## lipoteichoic acid [LTA]
HBD3
  HBD3 expression (Mean): 2.46
cathelicidin; [7]
  Cathelicidin mRNA expression (Mean): 3.82
[1]
  HBD2 expression (Mean): 4.43

## C=C1/C(=C\C=C2/CCC[C@]3(C)[C@@H]([C@H](C)CCCC(C)(C)O)CC[C@@H]23)C[C@@H](O)C[C@@H]1O [1.25D3, 1.25 D-hydroxy calciferol]
[2]; 0 h
  Bacterial growth OD600 (Mean): 0.2203
[2]; 2 h
  Bacterial growth OD600 (Mean): 0.2677
[2]; 4 h
  Bacterial growth OD600 (Mean): 0.301
[2]; 5 h
  Bacterial growth OD600 (Mean): 0.3963
[2]; 6 h
  Bacterial growth OD600 (Mean): 0.513
[2]; 8 h
  Bacterial growth OD600 (Mean): 0.6203
TLR6
  TLR6 mRNA expression (Mean): 1.01
TLR2; Example 3, 1 nM 1.25D3
  TLR2 mRNA expression (Mean): 0.66
TLR2; [8]
  TLR2 mRNA expression (Mean): 0.10
TLR2; 0 h
  TLR2 mRNA expression (Means of N = 3): 1.00
TLR2; 8 h
  TLR2 mRNA expression (Means of N = 3): 1.32
TLR2; 24 h
  TLR2 mRNA expression (Means of N = 3): 1.51
TLR2; 48 h
  TLR2 mRNA expression (Means of N = 3): 1.55
cathelicidin; Example 4, 10 nM pimecrolimus, 1 nM 1.25 D3, 0.1 μg/ml Malp-2 or combination
  Cathelicidin mRNA expression (Mean): 2.76
cathelicidin; 0 h
  Cathelicidin mRNA expression (Means of N = 3): 1.00
cathelicidin; 8 h
  Cathelicidin mRNA expression (Means of N = 3): 35.04
cathelicidin; 24 h
  Cathelicidin mRNA expression (Means of N = 3): 134.03
cathelicidin; 48 h
  Cathelicidin mRNA expression (Means of N = 3): 92.37
CD14; Example 3, 1 nM 1.25D3
  CD14 mRNA expression (Mean): 3.01
CD14; [8]
  CD14 mRNA expression (Mean): 3.01
CD14; 0 h
  CD14 mRNA expression (Means of N = 3): 0.71
CD14; 8 h
  CD14 mRNA expression (Means of N = 3): 38.35
CD14; 24 h
  CD14 mRNA expression (Means of N = 3): 12.26
CD14; 48 h
  CD14 mRNA expression (Means of N = 3): 0.93
TLR1
  TLR1 mRNA expression (Mean): 1.93

## CO[C@H]1C[C@@H]2CC[C@@H](C)[C@@](O)(O2)C(=O)C(=O)N2CCCC[C@H]2C(=O)O[C@H]([C@H](C)C[C@@H]2CC[C@@H](O)[C@H](OC)C2)CC(=O)[C@H](C)/C=C(\C)[C@@H](O)[C@@H](OC)C(=O)[C@H](C)C[C@H](C)/C=C/C=C/C=C/1C [Rapamycin, rapamycin]
cathelicidin; [3]
  Cathelicidin mRNA expression (means): 4.03
cathelicidin; [4]
  Cathelicidin mRNA expression (means): 5.13
cathelicidin; [5]
  Cathelicidin mRNA expression (means): 12.38
cathelicidin; [6]
  Cathelicidin mRNA expression (means): 5.85

## peptidoglycan [PGN]
HBD3
  HBD3 expression (Mean): 0.61
cathelicidin; [7]
  Cathelicidin mRNA expression (Mean): 1.18
[1]
  HBD2 expression (Mean): 3.26
